Test results published in patent US9938276B2, “6,5-bicyclic octahydropyrrolopyridine orexin receptor antagonists” (Merck Sharp & Dohme Corp., priority 2014, dated 2018).
pIC50: −log10 of the molar value.

Key:
[1] = target: human orexin-2 receptor (Homo sapiens (Human), UniProt O43614); assay: hOX2R FLIPR Ca2+ flux assay; assay type: cell-based; details: CHO cells expressing the receptor; agonist 70 pM Ala-6,12 human orexin-A
Method in brief: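 CHO cells expressing rat OX1 or human OX2 receptor, Fluo-4AM loaded; compounds preincubated 5 min, then challenged with 70 pM Ala-6,12 human orexin-A in HBSS/20 mM HEPES/0.1% BSA/2.5 mM probenecid, pH 7.4. FLIPR fluorescence peak height over 5 min compared with agonist-only response.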

[2] = target: hOX1R (Homo sapiens, UniProt O43613); assay: hOX1R FLIPR Ca2+ flux assay; assay type: cell-based; details: CHO cells expressing the receptor; agonist 70 pM Ala-6,12 human orexin-A

human orexin-2 receptor, sequence (O43614 whole entry): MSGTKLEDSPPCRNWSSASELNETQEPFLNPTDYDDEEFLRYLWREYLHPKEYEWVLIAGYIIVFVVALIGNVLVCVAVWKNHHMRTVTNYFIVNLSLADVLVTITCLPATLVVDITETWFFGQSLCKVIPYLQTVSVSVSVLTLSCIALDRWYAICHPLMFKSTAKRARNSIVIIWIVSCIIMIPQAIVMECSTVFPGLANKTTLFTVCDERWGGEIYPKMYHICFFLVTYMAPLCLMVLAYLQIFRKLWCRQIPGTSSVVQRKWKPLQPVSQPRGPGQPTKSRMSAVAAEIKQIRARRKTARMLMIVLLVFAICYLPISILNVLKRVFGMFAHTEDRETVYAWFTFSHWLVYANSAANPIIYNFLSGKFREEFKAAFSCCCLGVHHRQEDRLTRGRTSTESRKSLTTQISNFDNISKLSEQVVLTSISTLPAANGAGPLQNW

Compound | pIC50 [1] | pIC50 [2]
N#Cc1ccnc(N2CC[C@@H]3CCN(C(=O)c4ccccc4C4CC4(F)F)C[C@@H]32)c1 (stereo partly drawn) [Example E22, 2-[(3aR, 7aR)-6-{[2-(2,2-difluorocyclopropyl)phenyl]carbonyl}octa-hydro-1H-pyrrolo[2,3-c]pyridin-1-yl]pyridine-4-carbonitrile] | 7.36 | 5.00
N#Cc1ccnc(N2CC[C@@H]3CCN(C(=O)c4ccccc4-c4ncccn4)C[C@@H]32)c1 [Example E23, 2-{(3aR, 7aR)-6-[(2-pyrimidin-2-ylphenyl)carbonyl]octahydro-1H-pyrrolo[2,3-c]pyridin-1-yl}pyridine-4-carbonitrile] | 7.00 | ≤ 5.00
NC(=O)c1ccnc(N2CC[C@@H]3CCN(C(=O)c4ccccc4-n4nccn4)C[C@@H]32)c1 [Example F1, 2-((3aR,7aR)-6-(2-(2H-1,2,3-triazol-2-yl)benzoyl)octahydro-1H-pyrrolo[2,3-c]pyridin-1-yl)isonicotinamide] | 6.25 | ≤ 5.00
N#Cc1ccnc(N2CC[C@@H]3C[C@@H](CO)N(C(=O)c4ccccc4-n4nccn4)C[C@@H]32)c1 [Example G1, 2-((3aR,5S,7aR)-6-(2-(2H-1,2,3-triazol-2-yl)benzoyl)-5-(hydroxymethyl)octahydro-1H-pyrrolo[2,3-c]pyridin-1-yl)isonicotinonitrile] | 8.09 | 5.56
CCOC(=O)[C@@H]1C[C@H]2CCN(c3cc(C#N)ccn3)[C@H]2CN1C(=O)c1ccccc1-n1nccn1 [Example G2, (3aR,5S,7aR)-ethyl 6-(2-(2H-1,2,3-triazol-2-yl)benzoyl)-1-(4-cyanopyridin-2-yl)octahydro-1H-pyrrolo[2,3-c]pyridine-5-carboxylate] | 6.70 | ≤ 5.00
N#Cc1ccnc(N2CC[C@@H]3C[C@@H](CO)N(C(=O)c4ccccc4-n4nccn4)C[C@@H]32)c1 [Example G4] | 5.68 | 5.00
C[C@H]1C[C@H]2CCN(c3cc(C#N)ccn3)[C@H]2CN1C(=O)c1ccccc1-n1nccn1 [Example H1, 2-(6-(2-(2H-1,2,3-triazol-2-yl)benzoyl)-5-methloctahydro-1H-pyrrolo[2,3-c]pyridin-1-yl)isonicotinonitrile] | 7.74 | 5.63
